Assay results from patent publication US10947202B2, “Sodium ion channel inhibitors and pharmaceutically acceptable salts and polymorphs thereof and uses thereof” (SHANGHAI HAIYAN PHARMACEUTICAL TECHNOLOGY CO., LTD., priority 2017, dated 2021).
One block for each compound: values may come before it.

Assays:
[1] = molecular target: hNav1.7 (Homo sapiens, UniProt Q15858); test: Manual patch clamp experiment of hNav1.7 channel (CHO-hNav1.7 stable cell line); assay type: cell-based; conditions: for inhibition at 0.1 µM: read-out: Inhibition of Nav1.7, 100 nM(%); for inhibition at 1 µM: read-out: Inhibition of Nav1.7, 1000 nM(%)
Chain of hNav1.7 (Q15858 whole entry): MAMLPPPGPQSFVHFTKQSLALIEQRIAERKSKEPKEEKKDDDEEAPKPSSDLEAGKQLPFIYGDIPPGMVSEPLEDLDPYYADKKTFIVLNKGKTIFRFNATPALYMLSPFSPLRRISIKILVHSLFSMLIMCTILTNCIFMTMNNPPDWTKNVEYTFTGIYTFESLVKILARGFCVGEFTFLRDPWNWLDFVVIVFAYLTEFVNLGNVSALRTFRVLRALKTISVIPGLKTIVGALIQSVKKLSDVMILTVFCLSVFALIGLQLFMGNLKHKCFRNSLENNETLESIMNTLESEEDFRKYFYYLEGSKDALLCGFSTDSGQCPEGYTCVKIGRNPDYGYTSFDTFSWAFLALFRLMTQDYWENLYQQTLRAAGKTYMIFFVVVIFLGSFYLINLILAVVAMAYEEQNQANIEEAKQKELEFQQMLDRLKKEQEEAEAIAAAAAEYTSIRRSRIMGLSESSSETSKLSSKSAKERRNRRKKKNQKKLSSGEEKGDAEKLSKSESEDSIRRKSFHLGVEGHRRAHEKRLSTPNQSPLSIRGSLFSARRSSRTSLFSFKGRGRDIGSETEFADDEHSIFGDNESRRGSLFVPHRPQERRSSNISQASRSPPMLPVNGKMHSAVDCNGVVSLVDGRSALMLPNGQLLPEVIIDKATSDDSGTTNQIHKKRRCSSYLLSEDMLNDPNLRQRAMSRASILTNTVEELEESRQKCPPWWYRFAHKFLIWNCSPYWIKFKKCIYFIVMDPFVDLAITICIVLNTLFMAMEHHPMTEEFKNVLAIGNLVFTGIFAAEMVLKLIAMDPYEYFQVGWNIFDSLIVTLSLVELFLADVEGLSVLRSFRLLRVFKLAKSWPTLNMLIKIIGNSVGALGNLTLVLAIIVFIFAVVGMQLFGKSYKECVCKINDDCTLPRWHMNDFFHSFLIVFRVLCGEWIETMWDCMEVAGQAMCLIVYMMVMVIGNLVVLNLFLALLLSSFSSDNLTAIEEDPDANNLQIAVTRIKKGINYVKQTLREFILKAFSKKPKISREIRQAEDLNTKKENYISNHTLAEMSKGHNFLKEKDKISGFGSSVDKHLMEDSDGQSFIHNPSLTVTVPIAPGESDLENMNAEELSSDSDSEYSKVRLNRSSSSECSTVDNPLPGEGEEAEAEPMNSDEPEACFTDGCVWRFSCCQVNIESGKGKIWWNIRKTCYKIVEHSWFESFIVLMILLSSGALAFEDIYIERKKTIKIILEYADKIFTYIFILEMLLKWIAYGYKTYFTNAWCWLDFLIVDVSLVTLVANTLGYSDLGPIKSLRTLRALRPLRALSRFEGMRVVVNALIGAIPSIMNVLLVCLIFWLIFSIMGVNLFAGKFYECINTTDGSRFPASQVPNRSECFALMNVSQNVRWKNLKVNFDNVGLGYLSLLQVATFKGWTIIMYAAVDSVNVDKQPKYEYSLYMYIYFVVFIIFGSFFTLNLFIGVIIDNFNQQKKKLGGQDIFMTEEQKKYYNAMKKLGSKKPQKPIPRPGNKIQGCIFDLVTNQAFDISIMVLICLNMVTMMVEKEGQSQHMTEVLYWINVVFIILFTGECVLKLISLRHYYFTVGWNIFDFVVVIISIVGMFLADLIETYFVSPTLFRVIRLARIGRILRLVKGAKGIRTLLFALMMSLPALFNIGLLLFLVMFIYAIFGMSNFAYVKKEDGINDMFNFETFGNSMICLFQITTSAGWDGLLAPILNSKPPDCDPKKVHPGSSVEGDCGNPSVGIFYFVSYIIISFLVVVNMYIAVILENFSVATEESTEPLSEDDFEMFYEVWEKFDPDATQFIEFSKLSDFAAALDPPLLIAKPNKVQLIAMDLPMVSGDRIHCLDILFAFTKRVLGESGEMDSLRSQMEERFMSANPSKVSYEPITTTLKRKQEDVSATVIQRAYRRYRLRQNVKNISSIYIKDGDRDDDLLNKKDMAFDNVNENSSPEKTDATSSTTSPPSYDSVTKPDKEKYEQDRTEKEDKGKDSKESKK
From the text: Patch voltage clamp electrophysiology allows for the direct measurement and quantification of current block of voltage-gated sodium channels (NaV's), and allows the determination of the time and voltage-dependence of block which has been interpreted as differential binding to the resting, open and inactivated states of the sodium channel to reflect the compound's inhibitory or activating effects (Hille, B., Journal of General Physiology (1977), 69: 497-515).
Representative compounds of the present disclosure were performed using a manual patch clamp experiment and the purpose of this study was to test the effect of compounds on this ion channel current on a stable cell line transfected with a specific ion channel using a manual patch clamp method, the used stable cell lines CHO-hNav1.7 and HEK-hNav1.5 were from Genionics and WuXi Apptec (Shanghai) respectively.
Manual patch clamp experimental program is as follows:
(1) Preparation of solutions and compounds: The whole cell patch clamp technique was used to record hNav1.7 and hNav1.5 currents. In the experiment, the composition of extracellular fluid (mM): HEPES: 5, NaCl: 40, KCl: CaCl2:1, MgCl2:1, CdCl2:0.1, TEA-Cl: 20. The pH was adjusted to 7.3 with NaOH and the osmotic pressure was adjusted to 310-320 mOsm with sucrose, filtered and stored at 4° C. The composition of the intracellular fluid (mM): HEPES: 10, NaCl: 10, CsOH: 5, CsF: 140, EGTA: 1. The pH was adjusted to 7.3 with CsOH and the osmotic pressure was adjusted to 280-290 mOsm with sucrose, filtered and stored at −20° C.
The positive control and the test compound were firstly dissolved in 100% DMSO (Sigma-Aldrich, D2650), configured as stock solution at a concentration (100 nM, 1000 nM).) The above stock solution was serially diluted with DMSO prior to the experiment, the solution was further diluted with extracellular solution to obtain the desired concentration of the test solution.
(2) Manual Patch Clamp Experiment: The cell suspension was added to a 35 mm petri dish and placed on an inverted microscope stage, the cells were perfused with an extracellular fluid and the flow rate was 1-2 mL/min after cell adherence. The glass microelectrode was pulled in two steps by a microelectrode puller with an inlet water resistance of 2-5 MΩ. A/D-D/A digital-analog conversion was performed by Digidata 1440 (Molecular Devices) and pCLAMP software (version 10.2, Molecular Devices) for stimulation and signal acquisition; the signal was amplified by patch clamp amplifier (Multiclamp 700B, Molecular Devices), filtering is 4 KHz.
Two different voltage stimulation procedures were used in the hNav1.7 and hNav1.5 manual patch clamp experiments.
One is the inactivation stimulation program, the clamp potential is set at V1/2 of the corresponding channel, ie about 50% of the channels are inactivated, then the voltage is applied to −120 mV for 50 ms, then depolarized to −10 mV for 20 ms leading to sodium current, and finally back to the clamp potential. This stimulation program can also be called channel state-dependent voltage stimulation program.
The other is the non-inactivation stimulation program, the clamp potential is maintained at −120 mV, voltage stimulation is given to −10 mV for 20 ms leading to sodium current, and finally back to the clamp potential. That is all channels have not experienced inactivation status, but activate directly from the resting state under the conditions of the stimulation program.
The time intervals of these two voltage stimulation program were 10 s. The inhibitory effect of the compound was calculated by the change of the current before and after dosing, the IC50 value was fitted by the Hill equation. […] The results are shown in Table 33 and Table 34, respectively.

[2] = Metabolism stability test in liver microsomes; assay type: in vitro ADME; conditions: human liver microsomes
Procedure: Buffer A: 1 L solution of 100 mM potassium dihydrogen phosphate containing 1 mM EDTA (Sigma, V900157-100G) was prepared.
Buffer B: 1 L solution of 100 mM dipotassium hydrogen phosphate containing 1 mM EDTA was prepared.
Buffer C: 700 mL of buffer B was taken out and titrated with buffer A to pH 7.4.
2.1 10 μl of 10 mM compound to be tested and 10 μl of 10 mM ketanserin were taken out and 190 μl of pure acetonitrile was added to each of them to prepare 500 μM compound to be tested and ketanserin, respectively.
2.2 20 μl (20 mg/mL) of liver microsomes (Corning Lot. NO. 4133007) stock solution was added to 513.4 μl of buffer C on wet ice. 0.75 mg/mL liver microsomal solution was obtained.
2.3 1.5 μl of each of the above-mentioned compound to be tested and ketanserin solution was added to 498.5 μl of liver microsomal solution (0.7 5 mg/mL) respectively on wet ice. 1.5 μM mixed solution of compound to be tested and 1.5 μM mixed solution of ketanserin were obtained.
2.4 At the time points 0, 5, 15, 30, 45, and 60 min, 30 μl of the mixed solution of compound to be tested and 30 μl of the mixed solution of ketanserin were dispensed into the reaction plate on wet ice, respectively.
2.5 5 mg reduced coenzyme II (Roche, 10621706001) was weighed and dissolved in 1 mL of buffer C. 6 mM reduced coenzyme II solution was obtained. The reduced coenzyme II solution was dispensed into the reaction plate.
2.6 Imipramine was dissolved to give a 10 mM solution. 10 μl imipramine solution was added to 100 mL of blank acetonitrile to generate the internal reference.
2.7 At 0 min, 135 μL of iced acetonitrile (Merck (Lot. 1778229518)) containing the internal reference was added to each well and then 15 μL of buffer C was added.
2.8 The reaction plate was placed into a 37° C. water bath incubator for 5 min. In the reaction plate, 15 μL of reduced coenzyme II solution was added to each well to initiate the reaction, and the time keeping was started. At the time points of 5, 15, 30, 45, and 60 min, 135 μL of iced acetonitrile containing the internal reference was added to each well to terminate the reaction.
2.9 The reaction plate was sealed with an aluminum film, placed on a vibration mixer and shaken at 500 rpm for 5 min. The plate was then centrifuged in a centrifuge at 3750 rp for 15 min.
2.10 The sample was diluted with pure water in accordance with the ratio of 1:1 and detected by LC/MS. […]
Wherein, the K value and the proportional factor were calculated by those skilled in the art according to the methods described in the prior art and contained in the instructions of the liver microsome product.

[3] = Crystal form stability on shaking in solvent or heating (XRPD); assay type: physicochemical; conditions: heated to 150° C.
Procedure: The reaction solution in the step 4 of Example 1 was poured into water, extracted with ethyl acetate, dried and concentrated, ethanol was added to dissolve and the solution was evaporated, 1N hydrochloric acid and ethyl acetate were added and stirred for 1-2 h, filtered, a solid product which was the crystal form III of free base was obtained, the X-ray powder diffraction pattern is shown in FIG. 11A (the 2θ angle has been marked), the DSC/TGA/DVS patterns are shown in FIGS. 11B, 11C and 11D. According to the DSC pattern, there is an inflection point around 100° C., and the sample has a melting absorption peak at 181.9° C. […] The sample was shaken in ACE and MeOH at 50° C. for 1 day, and the crystal form was unchanged.
The reaction solution in the step 4 of Example 1 was poured into water, extracted with ethyl acetate, dried and concentrated to retain a small amount of ethyl acetate, 1N hydrochloric acid was added and stirred for 1 h, filtered, the filter cake was washed with ethanol and then filtered to obtain a solid product which was the crystal form IV of free base was obtained. The X-ray powder diffraction pattern is shown in FIG. 12A (the […] has been marked), the DSC/TGA/DVS patterns are shown in FIGS. 12B, 12C and 12D. […] The sample was shaken in ACE at 50° C. for 1 day, and the crystal form was unchanged. […]

[4] = Hygroscopicity experiment (DVS); assay type: physicochemical
From the text: The Dynamic Vapor Sorption (DVS) curve was acquired on the DVS Intrinsic of Surface Measurement Systems.
The DVS results for crystal forms A, D, E-3 and F are shown in FIG. 1E, FIG. 4F, FIG. 7E and FIG. 8E, respectively.

SMILES: O=C(NS(=O)(=O)C1CC1)c1cc(C2CC2)c(CN2CCN(Cc3cc(Cl)cc(Cl)c3)CC2)cc1F [C1]
inhibition at 0.1 µM [1]: 49.2%
inhibition at 1 µM [1]: 64.8%

SMILES: O=C(NS(=O)(=O)C1CC1)c1cc(Cl)c(CN2CCN(Cc3ccc(Cl)cc3)CC2)cc1F [C6]
inhibition at 1 µM [1]: 67.2%

SMILES: Cc1cc(N2CCN(Cc3cc(F)c(C(=O)NS(=O)(=O)C4CC4)cc3Cl)CC2)ccc1Cl [crystal form VI, 5-chloro-4-((4-(4-chloro-3-methylphenyl)piperazin-1-yl)methyl)-N-(cyclopropylsulfonyl)-2-fluorobenzamide]
crystal form after heating [3]: converted into crystal form I
hygroscopicity (DVS curve) [4]: slightly hygroscopic

SMILES: Cc1cc(N2CCN(Cc3cc(F)c(C(=O)NS(=O)(=O)C4CC4)cc3Cl)CC2)ccc1Cl [crystal form VII, 5-chloro-4-((4-(4-chloro-3-methylphenyl)piperazin-1-yl)methyl)-N-(cyclopropylsulfonyl)-2-fluorobenzamide]
crystal form after heating [3]: converted into crystal form I
hygroscopicity (DVS curve) [4]: slightly hygroscopic

Continued, values first:

inhibition at 0.1 µM [1]: 52%
inhibition at 1 µM [1]: 64%
SMILES: CS(=O)(=O)NC(=O)c1cc(C2CC2)c(CN2CCN(Cc3ccc(Cl)c(Cl)c3)CC2)cc1F [C2]

Clearance ratio [2]: 78.28 mL/min/kg
SMILES: CS(=O)(=O)NC(=O)c1cc(Cl)c(CN2CCN(c3ccc(C4CC4)c(Cl)c3)CC2)cc1F [C12, reference compound]

Clearance ratio [2]: 138.91 mL/min/kg
SMILES: Cc1cc(N2CCN(Cc3cc(F)c(C(=O)NS(C)(=O)=O)cc3Cl)CC2)ccc1Cl [C13, reference compound]
